According to paper PMC5382172 (Frontiers in Molecular Neuroscience, 2017):

What was measured:
[1] = biological target: T1, GluClαWT (GLC-1) homomeric receptor (Caenorhabditis elegans, UniProt G5EBR3); design: method as in Degani-Katzav et al., [2016]; details: CHO cells, αWT alone; ref Degani-Katzav et al., [2016]; cited from earlier work
T1 construct: entry codes of the full-length subunits used in this study; expressed in transfected cells; host or cells: CHO cells, transient transfection, pcDNA3.1
T1 sequence (G5EBR3 21-461): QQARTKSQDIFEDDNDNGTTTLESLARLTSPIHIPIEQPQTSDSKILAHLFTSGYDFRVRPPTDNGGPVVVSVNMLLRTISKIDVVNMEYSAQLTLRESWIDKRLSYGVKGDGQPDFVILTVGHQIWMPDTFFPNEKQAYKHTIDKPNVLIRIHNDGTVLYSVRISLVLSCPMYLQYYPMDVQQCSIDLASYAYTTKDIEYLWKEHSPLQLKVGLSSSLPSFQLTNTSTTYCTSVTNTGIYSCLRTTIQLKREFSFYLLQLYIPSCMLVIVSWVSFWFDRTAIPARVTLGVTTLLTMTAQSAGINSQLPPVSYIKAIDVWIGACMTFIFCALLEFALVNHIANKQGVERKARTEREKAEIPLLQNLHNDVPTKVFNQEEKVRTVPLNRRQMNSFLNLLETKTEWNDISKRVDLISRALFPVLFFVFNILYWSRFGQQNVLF

[2] = biological target: T2, GluClβWT (GLC-2) homomeric receptor (Caenorhabditis elegans, UniProt Q17328); assay: Whole-cell patch clamp in CHO cells transfected with GluClβWT subunit alone; type: cell-based; details: βWT alone, 500 nM IVM, -60 mV
T2 construct: entry codes of the full-length subunits used in this study; expressed in transfected cells; host or cells: CHO cells, transient transfection, pcDNA3.1
T2 sequence (Q17328 23-434): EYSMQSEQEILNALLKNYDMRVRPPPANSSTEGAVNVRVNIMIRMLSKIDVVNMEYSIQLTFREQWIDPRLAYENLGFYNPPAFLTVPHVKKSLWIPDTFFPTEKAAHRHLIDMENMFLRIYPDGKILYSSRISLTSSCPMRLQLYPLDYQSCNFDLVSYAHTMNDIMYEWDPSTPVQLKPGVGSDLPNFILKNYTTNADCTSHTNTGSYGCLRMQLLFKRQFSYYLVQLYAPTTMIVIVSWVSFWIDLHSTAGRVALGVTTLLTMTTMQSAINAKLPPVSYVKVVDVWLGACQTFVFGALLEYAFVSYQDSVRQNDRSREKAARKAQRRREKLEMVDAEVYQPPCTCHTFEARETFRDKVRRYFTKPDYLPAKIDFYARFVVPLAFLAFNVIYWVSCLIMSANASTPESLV
Procedure: Chinese hamster ovary (CHO) cells were cultured as previously (Bar-Lev et al., [2011]) in Dulbecco’s Modified Eagle Medium (DMEM) containing 10% fetal calf serum, 2 mM glutamax, 100 Units/ml penicillin G and 100 μg/ml streptomycin, and grown in 5% CO2 at 37°C under 90%–95% humidity. The cells were seeded on glass coverslips (13-mm diameter) placed in a 24-multiwell plate. […] For the expression of GluCl receptors, cells were transiently co-transfected with pcDNA3.1 plasmids containing the ORFs of interest using transit-LT1 transfection reagent (Mirus, Madison, WI, USA), according to the manufacturer’s protocol. The cDNAs encoding the C. elegans GluClα (GLC-1) or its mutated versions and the GluClβ (GLC-2) subunits (200–600 ng per well) were used at 1:1 ratio. The pIRES-CD8 plasmid (200 ng per well) was added to enable the visualization of the expressing cells by beads coated with anti-CD8 antibodies (Invitrogen). […]
Whole-cell patch clamp recordings were performed as described previously (Bar-Lev et al., [2011]) in CHO cells that were prepared as detailed above. […] The currents were measured with an Axopatch 200B patch-clamp amplifier (Molecular Devices, Sunnyvale, CA, USA) and a Digidata 1440A interface (Molecular Devices). […]

SMILES: CC[C@H](C)[C@H]1O[C@]2(CC[C@@H]1C)C[C@@H]1C[C@@H](C/C=C(\C)[C@@H](O[C@H]3C[C@H](OC)[C@@H](O[C@H]4C[C@H](OC)[C@@H](O)[C@H](C)O4)[C@H](C)O3)[C@@H](C)/C=C/C=C3\CO[C@@H]4[C@H](O)C(C)=C[C@@H](C(=O)O1)[C@]34O)O2 [IVM, ivermectin]
- response to 500 nM IVM [1]: robust responses
- IVM (500 nM) Amplitude [2]: 0.0 ± 0.0 (10) nA
